Measurements published in article PMC10434765, “Exploring the potential of propanamide-sulfonamide based drug conjugates as dual inhibitors of urease and cyclooxygenase-2: biological and their in silico studies” (Frontiers in Chemistry, 2023).
Where two headings read alike, the source gives them in different places.

Assays:
jack bean urease [1] = molecular target: T1, jack bean urease (Canavalia ensiformis, UniProt P07374); test: biochemical
Procedure: Each tube received 400 µL of urea (20 mM) as substrate, which was then incubated for 10 min at the same temperature.
Each inhibitor’s binding mechanism was tested at various doses (0–20 µM) for kinetics investigations. […] Lineweaver Burk plots were drawn using GraphPad PRISM 7.0 to determine the values of Km (app), Vmax (app), and Ki (inhibition constant).

jack bean urease [2] = molecular target: T1, jack bean urease; conditions: for Vmax (app): maximum rate at 20 µM of inhibitor concentration; for Mode of inhibition: urea 0.5-4.0 mM, inhibitor 0-20 µM; for % inhibition of urease: value in parentheses beside IC50, n = 3, concentration not given
[3] = system: carrageenan-induced acute inflammation in mice; test: Carrageenan-induced paw edema anti-inflammatory study; assay type: in vivo; conditions: 10 mg/kg intraperitoneally, n = 6
Procedure: As previously mentioned in our study, carrageenan-induced acute inflammation in mice was used to measure the anti-inflammatory effect ([Ahmed et al., 2018b]). Six groups of mice were formed and each group comprised six mice, the mice fasted 16 h before of induction of inflammation by injecting the phlogistic agent (carrageenan). The right hind paw of each mouse was measured before and after the 100 µL injection of the carrageenan (1% in 0.9% saline). The test substances, standard medication (indomethacin), and control (0.9% saline) were administered intraperitoneally at 10 mg/kg body weight. For 3 h, and after the 1-h interval, the thickness (mm) of the right hind paw of each mouse was measured. The difference in thickness of paw edema of control and test substance was used to determine the percentage inhibition of inflammation by the formula given below. Percentage inhibition of inflammation=Ct−CocontrolCt−Cotreated/Ct−Cocontrol×100 (2)
Where Ct and Co are the right hind paw thickness after and before carrageenan injection.

COX-2 enzyme = molecular target: T2, COX-2 enzyme (Homo sapiens, UniProt P35354); test: COX-2 inhibitory assay (Cayman kit); assay type: biochemical; conditions: n = 3
T2 construct: purchased Cayman Chemical Company, United States Item No. 760151
T2 sequence (P35354 18-604): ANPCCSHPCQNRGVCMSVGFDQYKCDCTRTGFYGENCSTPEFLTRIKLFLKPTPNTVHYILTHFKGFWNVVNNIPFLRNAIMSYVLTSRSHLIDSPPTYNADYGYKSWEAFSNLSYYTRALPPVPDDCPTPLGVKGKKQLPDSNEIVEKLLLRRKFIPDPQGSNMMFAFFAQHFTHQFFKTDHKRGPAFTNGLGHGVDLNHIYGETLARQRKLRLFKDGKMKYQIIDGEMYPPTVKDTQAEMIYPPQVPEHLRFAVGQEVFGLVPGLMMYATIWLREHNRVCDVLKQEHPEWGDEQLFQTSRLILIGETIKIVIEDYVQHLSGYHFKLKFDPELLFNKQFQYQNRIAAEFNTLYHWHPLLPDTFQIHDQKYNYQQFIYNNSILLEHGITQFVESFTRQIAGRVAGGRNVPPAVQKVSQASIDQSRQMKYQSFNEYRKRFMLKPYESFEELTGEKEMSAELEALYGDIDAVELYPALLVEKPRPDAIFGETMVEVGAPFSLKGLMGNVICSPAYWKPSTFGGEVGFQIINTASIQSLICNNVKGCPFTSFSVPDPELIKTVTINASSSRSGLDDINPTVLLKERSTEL
Procedure: For the initial activity assay, 150 µL buffer, 10 µL heme, and 10 µL COX-2 enzyme were mixed in a well whereas 110 µL buffer, 10 µL heme, 10 µL COX-2 enzyme, and 40 µL test inhibitor (10 µM) were mixed for inhibitory assay using 96 wells plate.

T1 sequence (P07374 whole entry, looked up): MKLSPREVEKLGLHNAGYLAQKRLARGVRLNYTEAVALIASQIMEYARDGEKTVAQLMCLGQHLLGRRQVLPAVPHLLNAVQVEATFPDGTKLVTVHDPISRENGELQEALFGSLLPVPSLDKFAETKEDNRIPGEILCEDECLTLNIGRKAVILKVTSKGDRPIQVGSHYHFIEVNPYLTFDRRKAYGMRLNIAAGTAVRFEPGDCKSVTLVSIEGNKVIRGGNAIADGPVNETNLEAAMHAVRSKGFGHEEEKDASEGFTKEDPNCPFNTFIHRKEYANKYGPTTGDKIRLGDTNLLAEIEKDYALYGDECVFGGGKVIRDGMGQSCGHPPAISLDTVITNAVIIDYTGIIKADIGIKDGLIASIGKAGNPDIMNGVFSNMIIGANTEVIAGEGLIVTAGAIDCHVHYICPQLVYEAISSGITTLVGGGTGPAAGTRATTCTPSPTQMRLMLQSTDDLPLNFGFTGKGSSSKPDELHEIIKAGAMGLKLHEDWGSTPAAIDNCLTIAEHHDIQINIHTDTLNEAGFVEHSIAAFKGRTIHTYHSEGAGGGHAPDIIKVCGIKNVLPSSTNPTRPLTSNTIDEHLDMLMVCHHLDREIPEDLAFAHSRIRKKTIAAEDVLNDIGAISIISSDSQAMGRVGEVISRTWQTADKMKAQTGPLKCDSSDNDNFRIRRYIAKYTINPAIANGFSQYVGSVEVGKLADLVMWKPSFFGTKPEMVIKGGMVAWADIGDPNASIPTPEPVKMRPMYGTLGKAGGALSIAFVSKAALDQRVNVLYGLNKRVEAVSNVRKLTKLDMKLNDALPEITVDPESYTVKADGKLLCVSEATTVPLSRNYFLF

## COc1ccc2cc([C@H](C)C(=O)Nc3ccc(S(N)(=O)=O)cc3)ccc2c1 [Conjugate 3, (S)-2-(6-methoxynaphthalen-2-yl)-N-(4-sulfamoylphenyl)propanamide]
Jack bean urease [1]
  IC50: 6.69 ± 0.11 µM
  Ki: 2.4 µM
other
  melting point: 208 to 210 °C
Jack bean urease [2]; Lineweaver Burk plot
  Vmax (app): 2.57 µM/min
Jack bean urease [2]
  Mode of inhibition: Competitive
  % inhibition of urease: 89.4%

## COc1ccc2cc([C@H](C)C(=O)Nc3ccc(S(=O)(=O)Nc4ncccn4)cc3)ccc2c1 [Conjugate 6, (S)-2-(6-methoxynaphthalen-2-yl)-N-(4-(N-(pyrimidin-2-yl)sulfamoyl)phenyl)propanamide]
Jack bean urease [1]
  IC50: 4.08 ± 0.1 µM
  Ki: 5.58 µM
other
  melting point: 163 to 165 °C
Jack bean urease [2]; Lineweaver Burk plot
  Vmax (app): 0.363 µM/min
Jack bean urease [2]
  Mode of inhibition: Mixed
  % inhibition of urease: 90.3%

## COc1ccc2cc([C@H](C)C(=O)O)ccc2c1 [Naproxen, reference compound]
[3]; 0 h
  Paw edema in mm (mean ± SEM): 1.81 ± 0.06 (−) mm
[3]; 1 h
  % inhibition of paw edema: 21.1%
  Paw edema in mm (mean ± SEM): 2.60 ± 0.13 mm
[3]; 2 h
  % inhibition of paw edema: 46.3%
  Paw edema in mm (mean ± SEM): 2.53 ± 0.11 mm
[3]; 3 h
  % inhibition of paw edema: 76.1%
  Paw edema in mm (mean ± SEM): 2.41 ± 0.12 mm

## COc1ccc2cc([C@H](C)C(=O)Nc3ccc(S(=O)(=O)NC(C)=O)cc3)ccc2c1 [Conjugate 9, (S)-N-(4-(N-acetylsulfamoyl)phenyl)-2-(6-methoxynaphthalen-2-yl)propanamide]
Jack bean urease [1]
  IC50: 20.32 ± 0.12 µM
  Ki: 2.61 µM
other
  melting point: 138 to 140 °C
Jack bean urease [2]; Lineweaver Burk plot
  Vmax (app): 0.66 µM/min
Jack bean urease [2]
  Mode of inhibition: Mixed
  % inhibition of urease: 85.7%

## COc1ccc2c(c1)c(CC(=O)O)c(C)n2C(=O)c1ccc(Cl)cc1 [Indomethacin, reference compound]
[3]; 0 h
  Paw edema in mm (mean ± SEM): 1.81 ± 0.05 (−) mm
[3]; 1 h
  % inhibition of paw edema: 20.1%
  Paw edema in mm (mean ± SEM): 2.61 ± 0.14 mm
[3]; 2 h
  % inhibition of paw edema: 55.2%
  Paw edema in mm (mean ± SEM): 2.41 ± 0.09 mm
[3]; 3 h
  % inhibition of paw edema: 86.8%
  Paw edema in mm (mean ± SEM): 2.14 ± 0.09 mm

## COc1ccc2cc([C@H](C)C(=O)Nc3ccc(S(=O)(=O)Nc4onc(C)c4C)cc3)ccc2c1 [Conjugate 4, (S)-N-(4-(N-(3,4-dimethylisoxazol-5-yl)sulfamoyl)phenyl)-2-(6-methoxynaphthalen-2-yl)propanamide]
Jack bean urease [1]
  IC50: 25.63 ± 0.24 µM
COX-2 enzyme
  inhibition at 10 µM: 64.5%
[3]; 0 h
  Paw edema in mm (mean ± SEM): 1.80 ± 0.04 (−) mm
[3]; 1 h
  % inhibition of paw edema: 8.2%
  Paw edema in mm (mean ± SEM): 2.72 ± 0.12 mm
[3]; 2 h
  % inhibition of paw edema: 45.5%
  Paw edema in mm (mean ± SEM): 2.53 ± 0.09 mm
[3]; 3 h
  % inhibition of paw edema: 78.0%
  Paw edema in mm (mean ± SEM): 2.36 ± 0.11 mm
other
  melting point: 241 to 243 °C
Jack bean urease [2]
  % inhibition of urease: 94.1%

## COc1ccc2cc([C@H](C)C(=O)Nc3ccc(S(=O)(=O)Nc4cc(C)on4)cc3)ccc2c1 [Conjugate 8, (S)-2-(6-methoxynaphthalen-2-yl)-N-(4-(N-(5-methylisoxazol-3-yl)sulfamoyl)phenyl)propanamide]
Jack bean urease [1]
  IC50: 29.64 ± 0.27 µM
COX-2 enzyme
  inhibition at 10 µM: 75.4%
[3]; 0 h
  Paw edema in mm (mean ± SEM): 1.80 ± 0.08 (−) mm
[3]; 1 h
  % inhibition of paw edema: 24.1%
  Paw edema in mm (mean ± SEM): 2.56 ± 0.14 mm
[3]; 2 h
  % inhibition of paw edema: 47.0%
  Paw edema in mm (mean ± SEM): 2.51 ± 0.08 mm
[3]; 3 h
  % inhibition of paw edema: 82.8%
  Paw edema in mm (mean ± SEM): 2.23 ± 0.12 mm
other
  melting point: 178 to 180 °C
Jack bean urease [2]
  % inhibition of urease: 87.6%

## COc1ccc2cc([C@H](C)C(=O)Nc3ccc(S(=O)(=O)NC(=N)N)cc3)ccc2c1 [Conjugate 10, (S)-N-(4-(N-carbamimidoylsulfamoyl)phenyl)-2-(6-methoxynaphthalen-2-yl)propanamide]
Jack bean urease [1]
  IC50: 5.06 ± 0.29 µM
  Ki: 3.56 µM
Jack bean urease [2]; Lineweaver Burk plot
  Vmax (app): 1.96 µM/min
Jack bean urease [2]
  Mode of inhibition: Competitive
  % inhibition of urease: 89.1%

## NC(N)=S [Thiourea, reference compound]
Jack bean urease [2]; Lineweaver Burk plot
  Vmax (app): 18.61 µM/min
Jack bean urease [2]; read-out: IC50 (µM), mean ± SEM, jack bean urease, n = 3, thiourea as standard
  IC50: 22.6 ± 0.23 µM
Jack bean urease [2]; read-out: Ki (inhibition constant), secondary Lineweaver Burk plot
  Ki: 18.2 µM
Jack bean urease [2]; read-out: Km (app), Michaelis constant at 20 µM of inhibitor concentration, Lineweaver Burk plot
  Km: 2180 µM
Jack bean urease [2]
  Mode of inhibition: Competitive
  % inhibition of urease: 92.3%

## COc1ccc2cc([C@H](C)C(=O)Nc3ccc(S(=O)(=O)Nc4nccc(C)n4)cc3)ccc2c1 [Conjugate 7, (S)-2-(6-methoxynaphthalen-2-yl)-N-(4-(N-(4-methylpyrimidin-2-yl)sulfamoyl)phenyl)propanamide]
Jack bean urease [1]
  IC50: 16.57 ± 0.14 µM
  Ki: 9.98 µM
other
  melting point: 160 to 162 °C
Jack bean urease [2]; Lineweaver Burk plot
  Vmax (app): 0.602 µM/min
Jack bean urease [2]
  Mode of inhibition: Mixed
  % inhibition of urease: 84.3%

## COc1ccc2cc([C@H](C)C(=O)Nc3ccc(S(=O)(=O)Nc4nccs4)cc3)ccc2c1 [Conjugate 5, (S)-2-(6-methoxynaphthalen-2-yl)-N-(4-(N-(thiazol-2-yl)sulfamoyl)phenyl)propanamide]
Jack bean urease [1]
  IC50: 5.82 ± 0.28 µM
  Ki: 5.05 µM
COX-2 enzyme
  inhibition at 10 µM: 61.3%
[3]; 0 h
  Paw edema in mm (mean ± SEM): 1.81 ± 0.05 (−) mm
[3]; 1 h
  % inhibition of paw edema: 9.1%
  Paw edema in mm (mean ± SEM): 2.71 ± 0.09 mm
[3]; 2 h
  % inhibition of paw edema: 43.3%
  Paw edema in mm (mean ± SEM): 2.57 ± 0.11 mm
[3]; 3 h
  % inhibition of paw edema: 75.3%
  Paw edema in mm (mean ± SEM): 2.43 ± 0.08 mm
other
  melting point: 184 to 185 °C
Jack bean urease [2]; Lineweaver Burk plot
  Vmax (app): 0.714 µM/min
Jack bean urease [2]
  Mode of inhibition: Competitive
  % inhibition of urease: 88.9%
